Test results taken from the METLIN SMRT retention time set (Domingo-Almenara et al. 2019).

Test: gradient 5% acetonitrile 3 min, to 50% in 2 min, to 85% in 15 min, held 3 min, 100 µL/min
Conditions: column: Zorbax Extend-C18 2.1 x 50 mm; eluents: water / acetonitrile, 0.1% formic acid
In short: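 Data were gathered over 3 months by HPLC coupled to a quadrupole time-of-flight mass spectrometer, operated in positive and negative ionization mode. Mixtures of ~100 pure standards ran on a Zorbax Extend-C18 column (2.1 × 50 mm, 1.8 μm) at 100 μL/min, with water and acetonitrile each containing 0.1% formic acid and dead and dwell volumes of 40 μL and 900 μL. Retention time was read from adduct peaks picked by computer and checked manually.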

| Compound | RP-LC retention time |
| --- | --- |
| CC(=O)NCc1csc(C2CCCN(C(=O)c3cccn3C)C2)n1 (stereo not given) | 612 s |
| CCc1ccc(-c2cn3cc(C(=O)NCCN4CCN(C)CC4)ccc3n2)cc1 | 573 s |
| CCC(C)C(=O)NC1CCN(C2=NS(=O)(=O)C(c3ccc(C(C)C)cc3)=C2C)CC1 (stereo not given) | 962 s |
| O=C(Nc1ccc(F)cc1)N1CCc2nc(-c3ccc(F)cc3)ncc2C1 | 926 s |
| O=C(NCc1cccs1)c1ccc(-c2cccnc2)nc1 | 614 s |
| CCCNc1cc(-n2nc(C)cc2C)ncn1 | 771 s |
| Cc1ccc(CNC(=O)C2(C)Cn3nc(C)cc3C(=O)N2c2ccc3c(c2)OCCO3)cc1 (stereo not given) | 809 s |
| COc1ccccc1Oc1ccc(S(=O)(=O)NCc2ccco2)cc1 | 873 s |
| Cc1nc([C@H]2CCN(Cc3cc(Cl)ccc3F)C[C@H]2N(C)C)n[nH]1 | 567 s |
| Cc1cc(C)n2nc(SCC(=O)NCCc3ccccc3)nc2n1 | 689 s |
| CCNC(=O)N1[C@H]2CC[C@@H]1c1cnc(-c3ccccc3)nc1C2 | 735 s |
| Cc1cccc(NC(=O)Nc2cccc(-c3ccc(N4CCOCC4)nn3)c2)c1 | 714 s |
| O=C(NCc1ccco1)C1CCN(c2ncccc2-c2nc(-c3ccccc3)no2)CC1 | 964 s |
| CCc1noc(NC(C)=O)c1-c1ccc(OC)c(S(=O)(=O)NCc2ccc(F)cc2)c1 | 794 s |
| COc1ccc(Cl)c2c(=O)c3c([nH]c12)CCN(CC(=O)NCc1ccc(C)cc1)C3 | 630 s |
| Cc1ccc(Cl)cc1N1C(=O)CN(S(C)(=O)=O)CC1(C)C(=O)NC1CCCCCC1 (stereo not given) | 942 s |
| COc1ccc(C(=O)N2CCCCC2c2nncn2CC2CC2)cc1F (stereo not given) | 718 s |
| O=C(COc1ccc(Cl)cc1)NCC#CCN1CCCC1 | 544 s |
| CN(C)C[C@@H]1CN(C)C[C@H]1NC(=O)NCc1ccc(OC(F)(F)F)cc1 | 588 s |
| Cc1ccc(N2C(=O)C3N=NN(Cc4nc(-c5cccc(Br)c5)no4)C3C2=O)cc1C (stereo not given) | 1120 s |
| Cc1ccc2c(c1)N(S(C)(=O)=O)CCC(C(=O)Nc1ccc(Br)cc1F)O2 (stereo not given) | 1030 s |
| COc1ccc(CNC(=O)C2(C)CCN(C(=O)Nc3ccc(F)cc3)CC2)cc1 | 761 s |
| CC(C)C(=O)Nc1ccc(CCc2nc3ccc(C(=O)NC4CCCCC4)cc3[nH]2)cc1 | 672 s |

| Compound | RP-LC retention time |
| --- | --- |
| CC(C)c1c(C2CCN(C(=O)c3cc4ccccc4[nH]3)CC2)noc1N | 824 s |
| CC1(C)Cc2cccc(OCc3ccc(C(=O)NCc4ccccn4)cc3)c2O1 | 663 s |
| Cc1nnc(NC(=O)C2CCN(C(=O)c3cccc(F)c3)CC2)s1 | 661 s |
| CCOc1ccc(CCNC(=O)C2CCCN(C(=O)c3cc(C)cc(C)c3)C2)cc1OCC (stereo not given) | 920 s |
| O=C(CSc1ccc(-c2cccc([N+](=O)[O-])c2)nn1)NCc1cccs1 | 766 s |
| Cc1ccc(C)c(CNC(=O)c2cc3c(=O)n(C)c4ccccc4n3n2)c1 | 966 s |
| O=C(Cc1csc2nc(-c3ccccc3)cn12)NC1CCCCCCC1 | 877 s |
| O=S(=O)(Nc1ccc(N2CCOCC2)cc1)C1CC1 | 623 s |
| COc1ccc(-c2nnc(-c3cccnc3N3CCC4(CC3)OCCO4)o2)cc1 | 875 s |
| Cn1c(=O)c(N2CCN(C(=O)c3ccc(Cl)cc3)CC2)nc2ccncc21 | 560 s |
| CCCNC(=O)C1CC(=O)N(CCc2c[nH]c3ccc(Cl)cc23)C1 (stereo not given) | 708 s |
| CN1C(=O)c2cc(C(=O)NCCCc3ccccc3)nn2CC1(C)C(=O)NC1CCCCC1 (stereo not given) | 854 s |
| COc1ccc(NC(=O)N2CCC(CC(=O)N3CCCCC3)CC2)cc1 | 706 s |
| CS(=O)(=O)Nc1ccc(C2(C(=O)NCc3ccccc3Cl)CCCCC2)cc1 | 946 s |
| COc1ccc(-c2nnc(-c3ccc(C)c(S(=O)(=O)N(C)CC(=O)O)c3)o2)cc1OC | 748 s |
| CC(=O)N1CCc2cc(N3CC(C(=O)NCc4cc(F)cc(F)c4)CC3=O)ccc21 (stereo not given) | 690 s |
| CCCn1c(=O)sc2cc(S(=O)(=O)N3CCC(C(=O)N4CCc5ccccc54)CC3)ccc21 | 1020 s |
| CCN(CC)C(=O)N1CCC2(CC1)C(OC)C(=O)N2c1cccc(F)c1 (stereo not given) | 937 s |
| CCNC(=O)c1sc(Nc2ccc(Cl)cn2)nc1C | 726 s |
| Cc1nc(-c2noc(-c3cccc(F)c3)n2)cn1CC(=O)Nc1cccc(F)c1 | 889 s |
| CCc1nc2c(=O)n(CC(=O)N3CCCCC3)nc(C)c2s1 | 673 s |
| CS(=O)(=O)N1CCC(C(=O)N2CC3CC(C2)c2cccc(=O)n2C3)CC1 (stereo not given) | 528 s |
